The source of these data is ChEMBL document CHEMBL5038618, “Discovery of PT-65 as a highly potent and selective Proteolysis-targeting chimera degrader of GSK3 for treating Alzheimer's disease” (Eur J Med Chem, 2021).

What all share (type): cell-based
The target in assay [1] is T1, Protein cereblon/Glycogen synthase kinase-3 beta (Homo sapiens, UniProt P49841+Q96SW2). As to the kind of experiment: Protac activity at CRBN/GSK3beta in human SH-SY5Y cells assessed as induction of GSK3beta degradation at 1 uM measured after 24 hrs.
For assay [2], the target named is T1, Protein cereblon/Glycogen synthase kinase-3 beta. As to the kind of experiment: Protac activity at CRBN/GSK3beta in human SH-SY5Y cells assessed as induction of GSK3beta degradation at 10 uM measured after 24 hrs.
The target in assay [3] is T2, Protein cereblon/Glycogen synthase kinase-3 alpha (Homo sapiens, UniProt P49840+Q96SW2). Description: Protac activity at CRBN/GSK3alpha in human SH-SY5Y cells assessed as induction of GSK3alpha protein degradation at 1 uM measured after 24 hrs.
Assay [4] has as its target T2, Protein cereblon/Glycogen synthase kinase-3 alpha. Description: Protac activity at CRBN/GSK3alpha in human SH-SY5Y cells assessed as induction of GSK3alpha protein degradation at 10 uM measured after 24 hrs.
Assay [5] concerns the target T1, Protein cereblon/Glycogen synthase kinase-3 beta. As to the kind of experiment: Protac activity at CRBN/GSK3beta in human SH-SY5Y cells assessed as induction of GSK3beta degradation at 0.1 uM measured after 24 hrs.
In assay [6] the target is T2, Protein cereblon/Glycogen synthase kinase-3 alpha. Description: Protac activity at CRBN/GSK3alpha in human SH-SY5Y cells assessed as induction of GSK3alpha degradation at 0.1 uM measured after 24 hrs.

Where only a bound is given, the exact number is not on record here.

T2 sequence (P49840 2-483 limits assumed): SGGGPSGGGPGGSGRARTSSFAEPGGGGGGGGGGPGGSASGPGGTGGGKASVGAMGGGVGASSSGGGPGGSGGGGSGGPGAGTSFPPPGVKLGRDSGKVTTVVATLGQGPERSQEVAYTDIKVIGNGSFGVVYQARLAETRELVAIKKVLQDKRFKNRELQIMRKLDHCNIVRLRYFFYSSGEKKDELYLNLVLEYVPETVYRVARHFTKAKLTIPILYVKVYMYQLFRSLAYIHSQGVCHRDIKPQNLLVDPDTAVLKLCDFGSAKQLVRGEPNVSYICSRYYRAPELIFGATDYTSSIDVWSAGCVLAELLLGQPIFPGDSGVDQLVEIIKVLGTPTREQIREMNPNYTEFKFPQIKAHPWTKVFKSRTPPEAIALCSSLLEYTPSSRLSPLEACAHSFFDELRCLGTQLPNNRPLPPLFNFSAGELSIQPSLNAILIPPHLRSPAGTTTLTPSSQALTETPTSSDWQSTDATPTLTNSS
T2 sequence (Q96SW2 whole entry partner): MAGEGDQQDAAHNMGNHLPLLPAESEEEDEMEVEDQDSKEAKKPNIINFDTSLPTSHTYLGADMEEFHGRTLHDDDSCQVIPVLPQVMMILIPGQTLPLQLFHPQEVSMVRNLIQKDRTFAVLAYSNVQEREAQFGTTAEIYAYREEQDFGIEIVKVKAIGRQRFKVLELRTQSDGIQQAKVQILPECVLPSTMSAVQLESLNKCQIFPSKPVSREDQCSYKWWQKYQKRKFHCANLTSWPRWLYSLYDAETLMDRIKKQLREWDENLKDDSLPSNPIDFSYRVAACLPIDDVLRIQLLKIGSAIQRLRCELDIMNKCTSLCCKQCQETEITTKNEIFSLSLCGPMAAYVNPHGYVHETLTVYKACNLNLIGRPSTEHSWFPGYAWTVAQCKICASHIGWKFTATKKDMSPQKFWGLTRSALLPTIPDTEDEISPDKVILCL
T1 sequence (P49841 whole entry, looked up): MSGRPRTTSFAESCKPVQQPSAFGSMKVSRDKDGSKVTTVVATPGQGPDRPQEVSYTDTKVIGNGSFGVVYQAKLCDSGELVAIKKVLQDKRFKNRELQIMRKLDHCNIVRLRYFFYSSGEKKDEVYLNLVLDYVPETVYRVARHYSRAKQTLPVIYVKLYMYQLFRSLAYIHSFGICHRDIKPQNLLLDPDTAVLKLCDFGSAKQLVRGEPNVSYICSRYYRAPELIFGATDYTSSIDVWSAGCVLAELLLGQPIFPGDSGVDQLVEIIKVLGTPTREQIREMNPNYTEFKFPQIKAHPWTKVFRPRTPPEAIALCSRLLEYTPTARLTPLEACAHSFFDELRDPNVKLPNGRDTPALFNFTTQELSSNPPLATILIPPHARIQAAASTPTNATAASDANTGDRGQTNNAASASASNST
T1 sequence (Q96SW2 whole entry, looked up): as the sequence (Q96SW2 whole entry partner) above

Take `COc1ccc(-c2ocnc2C(=O)NCCCn2cc(COCCOCCOCCOc3cccc4c3CN(C3CCC(=O)NC3=O)C4=O)nn2)cc1Cl` (configuration not stated): the Activity in assay [1] turned out to be 14.5%; in assay [2] it was 37.3%; in assay [3], 38.7%; in assay [4], 76.4%.
Consider `Nc1ncc(-c2ccc(S(=O)(=O)N3CCN(CCc4cn(CCOCCOCCOCCOCCOCCNc5cccc6c5C(=O)N(C5CCC(=O)NC5=O)C6=O)nn4)CC3)cc2)nc1C(=O)Nc1cccnc1` (configuration not stated), for which the Activity came out at 81.3% in assay [1], 61.6% in assay [5], 87.8% in assay [3] and 68.1% in assay [6].
In the case of `COc1ccc(-c2ocnc2C(=O)NCCCc2cn(CCOCCOCCOCCOCCNc3cccc4c3C(=O)N(C3CCC(=O)NC3=O)C4=O)nn2)cc1Cl` (configuration not stated), the Activity in assay [1] came to 49.2%; in assay [3], 69.5%.
For the compound `Nc1ncc(-c2ccc(S(=O)(=O)N3CCN(CCc4cn(CCOCCOCCNc5cccc6c5C(=O)N(C5CCC(=O)NC5=O)C6=O)nn4)CC3)cc2)nc1C(=O)Nc1cccnc1` (configuration not stated), the Activity worked out at 79.5% in assay [1], 41.9% in assay [5], 95.2% in assay [3] and 61.1% in assay [6].
Consider `Nc1ncc(-c2ccc(S(=O)(=O)N3CCN(CCc4cn(CCOCCOCCOCCOCCNc5cccc6c5C(=O)N(C5CCC(=O)NC5=O)C6=O)nn4)CC3)cc2)nc1C(=O)Nc1cccnc1` (configuration not stated), for which the Activity was determined as 83.1% in assay [1], 55.9% in assay [5], 91.8% in assay [3] and 63.8% in assay [6].
As for `COc1ccc(-c2ocnc2C(=O)NCCCc2cn(CCOCCOCCNc3cccc4c3C(=O)N(C3CCC(=O)NC3=O)C4=O)nn2)cc1Cl` (configuration not stated), the Activity in assay [1] came to 28.2%; in assay [3], 43.8%.
`Nc1ncc(-c2ccc(S(=O)(=O)N3CCN(CCCCc4cn(CCOCCOCCOCCNc5cccc6c5C(=O)N(C5CCC(=O)NC5=O)C6=O)nn4)CC3)cc2)nc1C(=O)Nc1cccnc1` (configuration not stated): the Activity in assay [1] was determined as 89.7%; in assay [5], 54.6%; in assay [3] it was 93.8%; in assay [6], 69.3%.
For the compound `COc1ccc(-c2ocnc2C(=O)NCCCc2cn(CCOCCOCCNc3cccc4c3C(=O)N(C3CCC(=O)NC3=O)C4=O)nn2)cc1I` (configuration not stated), the Activity stood at 25.5% in assay [1] and 46.1% in assay [3].
On to `Nc1ncc(-c2ccc(S(=O)(=O)N3CCN(Cc4cn(CCOCCOCCOCCOCCNc5cccc6c5C(=O)N(C5CCC(=O)NC5=O)C6=O)nn4)CC3)cc2)nc1C(=O)Nc1cccnc1` (configuration not stated), for which the Activity stood at 65% in assay [1], 25.7% in assay [5], 79.5% in assay [3] and 42% in assay [6].
On to `Nc1ncc(-c2ccc(S(=O)(=O)N3CCN(CCCCc4cn(CCOCCOCCNc5cccc6c5C(=O)N(C5CCC(=O)NC5=O)C6=O)nn4)CC3)cc2)nc1C(=O)Nc1cccnc1` (configuration not stated), for which the Activity in assay [1] amounted to 88.3%; in assay [5], 38.2%; in assay [3], 95.1%; in assay [6], 70.9%.
For `COc1ccc(-c2ocnc2C(=O)NCCCc2cn(CCOCCOCCOCCOCCNc3cccc4c3C(=O)N(C3CCC(=O)NC3=O)C4=O)nn2)cc1I` (configuration not stated), the Activity in assay [1] is 25.9%; in assay [3], 46.5%.
For `COc1ccc(-c2ocnc2C(=O)NCCCc2cn(CCOCCOCCOCCOCCOCCNc3cccc4c3C(=O)N(C3CCC(=O)NC3=O)C4=O)nn2)cc1I` (configuration not stated) the same measures were 56.5% and 55.6%.
As for `Nc1ncc(-c2ccc(S(=O)(=O)N3CCN(Cc4cn(CCOCCOCCOCCOCCOCCOCCNc5cccc6c5C(=O)N(C5CCC(=O)NC5=O)C6=O)nn4)CC3)cc2)nc1C(=O)Nc1cccnc1` (configuration not stated), the Activity in assay [1] worked out at 61.3%; in assay [5], 15.2%; in assay [3], 75.4%; in assay [6], 29.7%.
For `Nc1ncc(-c2ccc(S(=O)(=O)N3CCN(CCc4cn(CCOCCOCCOCCOCCOCCOCCNc5cccc6c5C(=O)N(C5CCC(=O)NC5=O)C6=O)nn4)CC3)cc2)nc1C(=O)Nc1cccnc1` (configuration not stated) the same measures were 86%, 55.9%, 93.9% and 66.3%.
With `COc1ccc(-c2ocnc2C(=O)NCCCc2cn(CCOCCOCCOCCNc3cccc4c3C(=O)N(C3CCC(=O)NC3=O)C4=O)nn2)cc1I` (configuration not stated), the Activity in assay [1] amounted to 22.8%; in assay [3], 60.9%.
As for `Nc1ncc(-c2ccc(S(=O)(=O)N3CCN(CCc4cn(CCOCCOCCOCCNc5cccc6c5C(=O)N(C5CCC(=O)NC5=O)C6=O)nn4)CC3)cc2)nc1C(=O)Nc1cccnc1` (configuration not stated), the Activity in assay [1] worked out at 79.1%; in assay [5], 51.6%; in assay [3] it was 90.7%; in assay [6], 65%.
With `COc1ccc(-c2ocnc2C(=O)NCCCc2cn(CCOCCOCCOCCOCCOCCNc3cccc4c3C(=O)N(C3CCC(=O)NC3=O)C4=O)nn2)cc1Cl` (configuration not stated), the Activity in assay [1] was 54.6%; in assay [2], 85.2%; in assay [3] it was 56.2%; in assay [4], 84.6%.
`Nc1ncc(-c2ccc(S(=O)(=O)N3CCN(Cc4cn(CCOCCOCCNc5cccc6c5C(=O)N(C5CCC(=O)NC5=O)C6=O)nn4)CC3)cc2)nc1C(=O)Nc1cccnc1` (configuration not stated): the Activity in assay [1] amounted to 39.6%; in assay [5], 30.5%; in assay [3], 68.9%; in assay [6], 46.9%.
As for `COc1ccc(-c2ocnc2C(=O)NCCCc2cn(CCOCCOCCOCCNc3cccc4c3C(=O)N(C3CCC(=O)NC3=O)C4=O)nn2)cc1Cl` (configuration not stated), the Activity was determined as 36.8% in assay [1], 73.3% in assay [2], 62.4% in assay [3] and 89.9% in assay [4].
Turning to `COc1ccc(-c2ocnc2C(=O)NCCCc2cn(CCOCCOCCOCCOCCOCCOCCNc3cccc4c3C(=O)N(C3CCC(=O)NC3=O)C4=O)nn2)cc1I` (configuration not stated), the Activity was found to be 50.1% in assay [1] and 25.2% in assay [3].
As to `COc1ccc(-c2ocnc2C(=O)NCCCn2cc(COCCOCCOCCOCC(=O)N[C@@H](C(=O)N3C[C@H](O)C[C@H]3C(=O)NCc3ccc(-c4scnc4C)cc3)C(C)(C)C)nn2)cc1Cl`, the Activity in assay [1], in assay [2], in assay [3] and in assay [4] was less than 5% throughout.
As for `COc1ccc(-c2ocnc2C(=O)NCCCc2cn(CCOCCOCCOCCNC(=O)CNc3cccc4c3CN(C3CCC(=O)NC3=O)C4=O)nn2)cc1Cl` (configuration not stated), the Activity in assay [1] was less than 5%; in assay [2] it was 35.8%; in assay [3] it was less than 5%; in assay [4], less than 5%.
As for `COc1ccc(-c2ocnc2C(=O)NCCCc2cn(CCOCCOCCOCCOCCOCCOCCNc3cccc4c3C(=O)N(C3CCC(=O)NC3=O)C4=O)nn2)cc1Cl` (configuration not stated), the Activity in assay [1] came out at 88.8%; in assay [3], 60.7%.
`COc1ccc(-c2ocnc2C(=O)NCCCn2cc(CCCCC(=O)N[C@@H](C(=O)N3C[C@H](O)C[C@H]3C(=O)NCc3ccc(-c4scnc4C)cc3)C(C)(C)C)nn2)cc1Cl`: the Activity in assay [1], in assay [2], in assay [3] and in assay [4] was less than 5% in each case.
With `Nc1ncc(-c2ccc(S(=O)(=O)N3CCN(Cc4cn(CCOCCOCCOCCNC(=O)CNc5cccc6c5CN(C5CCC(=O)NC5=O)C6=O)nn4)CC3)cc2)nc1C(=O)Nc1cccnc1` (configuration not stated), the Activity in assay [1] and in assay [3] was less than 5% in each case.
